In patent US20100287638A1, “NEURAL TUMOR STEM CELLS AND METHODS OF USE THEREOF” (The Hospital for Sick Children, priority 2007, published 2010):
Entries after “also recorded” stand apart in the source; their conditions may differ. Where two headings read alike, the source gives them in different places.

B1: BMP-4: inductive signal added to basal media for astrocyte differentiation (R and D systems) (protein, UniProt P12644 293-408, looked up)
Bone morphogenetic protein 4: SPKHHSQRARKKNKNCRRHSLYVDFSDVGWNDWIVAPPGYQAFYCHGDCPFPLADHLNSTNHAIVQTLVNSVNSSIPKACCVPTELSAISMLYLDEYDKVVLKNYQEMVVEGCGCR

Tests used:
[1] = tested on: GNS cell lines G144, G166, and G179; type: cell-based; settings: 10 μM, two days
tumor lines (GNS cells) = experiment: Validation with compounds from an independent supplier, tumor lines; type: cell-based, human; settings: 10 μM, 2 days
Procedure: (§1) Here, selected compounds from an independent source were applied (2 μM for Tegaserod, 10 μM for all others) to G179 (left), HS 27 (middle) or fetal NS (right).
(§2) We carried out two fully independent screens using G144, G166, and G179, as well as a human fibroblast cell line (HS27). […] We chose Glioma NS cell lines to validate several of the drugs, from each class, using compounds obtained from an independent supplier (FIG. 18D).
(§3) For the drug screen we used the IncucyteHD system (Essen Instruments, USA), which enables simultaneously monitoring of six 96-well microplates. GNS cell lines were plated at 10-20% confluence on 96 well plates (Iwaki) coated with laminin (10 μg/ml for 3 hours). The NCC NIH Chemical Compounds library (http://www.nihclinicalcollection.com/) was added to the plates at a final concentration of 10 μM per compound per well (DMSO 0.1%). Images were captured before and after the addition of the library every half hour for 2.5 days in an automated manner using the Incucyte HD device (Essen Instruments, USA). Relative increase in cell number values were generated for every well using confluence readings obtained at each time-point relative to the starting confluence. For every cell line (G144, G166, G179, and HS27) two independent screens were run. HS27 is a human foreskin fibroblast line (American Type Culture Collection). […] Every well associated with a reduction in cell number within the 5* percentile in at least 3 independent screens was visually inspected.

fetal NS cells = experiment: Validation with compounds from an independent supplier, fetal NS cells; type: cell-based, human; settings: 10 μM, 2 days
Procedure: as §1, §2, §3

fibroblast cells (HS27) = experiment: Validation with compounds from an independent supplier, fibroblasts; type: cell-based, human; settings: 10 μM, 2 days
Procedure: as §1, §2, §3

[2] = tested on: human fibroblast cell line (HS27); experiment: Live-cell imaging (IncucyteHD) chemical screen on fibroblast line; type: cell-based; settings: 10 μM, two days
Procedure: as §2, §3

GNS cells [3] = experiment: GNS cell expansion culture; type: cell-based, human
Procedure: GNS cell expansion was carried out as described previously for human foetal NS cells (Sun et al., (2008) Mol Cell Neurosci 38, 245-258). Tissue culture flasks were pre-treated with Laminin, 10 μg/ml in PBS, (Sigma), for at least 3 hrs at 37° C. […] GNS cells were routinely grown to confluence, dissociated using Accutase (Sigma), and then split 1:3 to 1:5. Media was replaced with fresh media every 3-5 days. For all routine analysis we typically worked with cells between passage 10 and 20. For freezing, we re-suspended cell pellets in 0.5 ml of 10% DMSO/Media and placed in a −80° C. freezer. For long-term storage, liquid nitrogen was used. […] Fetal NS cells CB541 and CB660 are described by Sun et al., 2008, supra), while hf240, hf286, and hf289 (used in the microarrays) were isolated using similar techniques.

GNS cells [4] = experiment: TUNEL and caspase staining of treated cells; type: cell-based, human; settings: treated versus untreated cells
Text: FIG. 18E is a set of photomicrographs of cells either untreated or treated with indatraline and stained for TUNEL and caspase.

G179 cells = experiment: Astrocyte differentiation on BMP-4 exposure, G179; type: cell-based, human; settings: BMP-4 10 ng/ml, 7 days
Procedure: (§4) To determine whether GNS cells could respond to inductive signals and generate astrocytes, we exposed cells to BMP-4 or serum. […] This response is similar to that of human fetal NS cells (Sun et al., (2008) Mol Cell Neurosci 38, 245-258). Similar results were seen using serum treatment. […] Thus, while GNS cells retain a capacity to differentiate, the efficiency and lineage choice vary dramatically between each line.
(§5) All differentiation was carried out on laminin-coated plastic, either in 4-well plates (˜0.5-1×10^5 cells/well) (Nunc), or for time-lapse movies using 24-well Imagelock microplates (Essen Instruments). For oligodendrocytes and neuronal differentiation we used the same basal media but lacking EGF or FGF-2 (i.e., growth factor withdrawal). For astrocyte differentiation, we supplemented basal media with either BMP at 10 ng/ml (R and D systems), or 1% serum (Sigma). In each case, cells were washed twice with PBS or minimal media before adding the final differentiation media. Samples were processed for immunocytochemistry, typically 7-10 days later.
(§6) Cells w ere fixed in 4% PFA for 10 min and then washed with PBS+0.1% TritonX-100 (PBST). Blocking was carried out using 1% goat serum for 30 mins. […] Images were acquired using a Leica DMI400B inverted fluorescence microscope linked to a DFC340FX camera.

G144 cells = experiment: Astrocyte differentiation on BMP-4 exposure, G144; type: cell-based, human; settings: BMP-4 10 ng/ml, 7 days
Procedure: as §4, §5, §6

G166 cells = experiment: Astrocyte differentiation on BMP-4 exposure, G166; type: cell-based, human; settings: BMP-4 treatment
Procedure: as §4, §5, §6

Molecule	killing of / effect on all GNS cell lines [1]	cell death in tumor lines (tumor lines (GNS cells))	cell death in fetal NS cells (fetal NS cells)	effect on fibroblast cells (fibroblast cells (HS27))	also measured
c1ccc2c(c1)Nc1ccccc1S2 [10H-phenothiazine]	killed all GNS cell lines	–	–	–	–
CN1CCN(CCCN2c3ccccc3Sc3ccc(C(F)(F)F)cc32)CC1 [Trifluoperazine]	killed all GNS cell lines	–	–	–	–
C[C@@H]1CN(CCCn2c3ccccc3c3ccccc32)C[C@H](C)N1 [Rimcazole]	killed all GNS cell lines	cell death	cell death	less striking or no effect	–
Fc1ccc([C@@H]2CCNC[C@H]2COc2ccc3c(c2)OCO3)cc1 [paroxetine]	killed all GNS cell lines	–	–	–	killing of / effect on all GNS cell lines ([1]; listed as Paroxetine): affected all GNS cells; effect on fibroblasts [2]: no effect
LIF: the cytokine LIF (leukemia inhibitory factor)	–	–	–	–	effect on the cells in expansion culture (GNS cells [3]): no apparent effect
CN1CCN(c2nc3cc(C(F)(F)F)ccc3n3cccc23)CC1.O=C(O)/C=C\C(=O)O.O=C(O)/C=C\C(=O)O [CGS 12066B]	killed all GNS cell lines	–	–	–	–
CN[C@H]1CC[C@@H](c2ccc(Cl)c(Cl)c2)c2ccccc21 [sertraline]	–	cell death	cell death	less striking or no effect	–
CNC1CC(c2ccc(Cl)c(Cl)c2)c2ccccc21 (stereo not drawn) [indatraline]	killed all GNS cell lines	cell death	cell death	less striking or no effect	apoptotic cell death (TUNEL and caspase staining) (GNS cells [4]): dying by an apoptotic pathway; also recorded: increase in TUNEL and caspase staining; killing of / effect on all GNS cell lines ([1]; listed as Indatraline): affected all GNS cells; effect on fibroblasts [2]: no effect
[H]/N=C(/NCCCCC)N/N=C/c1c[nH]c2ccc(OC)cc12 [tegaserod]	killed all GNS cell lines	–	–	–	–
B1	–	–	–	–	differentiation into GFAP+ cells (G179 cells): majority of cells express high levels of GFAP; also recorded: efficiently differentiate into GFAP^+ cells; differentiation into GFAP+ cells (G179 cells; listed as BMP): expressed high levels of GFAP; differentiation into GFAP+ cells (G144 cells): majority of cells express high levels of GFAP; also recorded: efficiently differentiate into GFAP^+ cells; differentiation into GFAP+ cells (G166 cells): did differentiate; differentiation into GFAP+ cells (G166 cells; listed as BMP): could only be observed at low frequency
